Literature values in US9982018B2, “Amatoxin derivatives” ([…] GMBH, priority 2013, dated 2018).

Tests used:
[1] = molecular target: RNA polymerase II (Homo sapiens, UniProt P24928); conditions: read-out: KD of complex with RNA polymerase II
[2] = naturally occurring amatoxin lacking the γ-hydroxyl group

Substance | Kd [1] [nM] | toxicity [2]
amanitin | 3 | –
amanullin | – | considerably reduced toxicity
